Reference: patent publication US20190070174A1, “METHODS OF TREATING NEURODEGENERATIVE DISEASES” (priority 2016, published 2019)

How the values were obtained:
insoluble ATXN3 = experiment: Subchronic treatment of Q84 mice, filter trap analysis of insoluble fractions; type: in vivo, human; settings: brainstem insoluble fractions
Protocol: (§1) YACMJD84.2 transgenic mice were housed in cages with a maximum number of five animals and maintained in a standard 12-hour light/dark cycle with food and water ad libitum. Genotyping was performed using DNA isolated from tail biopsy at the time of weaning, and genotypes of all studied mice were confirmed using DNA extracted from tails collected post-mortem. […] Five hours after the final injection, mice were anesthetized with ketamine/xylazine and perfused transcardially with phosphate buffered saline (PBS) (for RNA and protein studies), and brains were immediately placed on dry ice and stored at −80° C.
Protein lysates from cell cultures, mouse brain slices or mouse brains were obtained by lysis in RIPA buffer containing protease inhibitors (Complete, Roche Diagnostics), followed by sonication and centrifugation. The supernatants (soluble protein fractions) were collected, total protein concentration was determined using the BCA method (Pierce) and then stored at −80° C. […] Pellets corresponding to insoluble protein fractions were resuspended in 100 μL of Laemmli buffer 2× and boiled for 10 min. Insoluble proteins were then quantified, and 100 μg were loaded in a filter trap assay apparatus and transferred to a nitrocellulose membrane (0.45 μm pore) that was incubated overnight with rabbit anti-MJD antibody (1:5000) at 4° C. […] Band intensity was quantified by densitometry using ImageJ.

[1] = system: high molecular weight (HMW) ATXN3 species; experiment: ATXN3 immunoblotting of protein lysates from fly heads; type: in vivo, Drosophila
ATXN3Q55 = experiment: Native PAGE analysis at the end of the ThT assay; type: biochemical, human
human mutant ATXN3Q84 = type: cell-based; settings: sagittal brain slices treated for 48 hours, cerebellum and brainstem
Protocol: Nine slices per brain were used in each set of cultures. […] After 48 hours of incubation at 37° C./5% CO2, brain slices were assessed for ATXN3 levels by immunoblotting or immunofluorescence and for cell viability. For immunoblotting, each slice was macrodissected into separate cerebellum and brainstem that were immediately frozen at −80° C. in 80 μL and 150 μL of cold RIPA buffer containing protease inhibitors (Complete, Roche Diagnostics), respectively. Cell viability was assessed on treated slices by incubation in propidium iodide (PI) 1 μg/mL in culture medium for 1 hour. Slices were then mounted in PROLONG Gold Antifade Reagent (Invitrogen) and imaged using a FV500 Olympus confocal microscope.
(§2) Protein lysates from cell cultures, mouse brain slices or mouse brains were obtained by lysis in RIPA buffer containing protease inhibitors (Complete, Roche Diagnostics), followed by sonication and centrifugation. The supernatants (soluble protein fractions) were collected, total protein concentration was determined using the BCA method (Pierce) and then stored at −80° C. […] Pellets corresponding to insoluble protein fractions were resuspended in 100 μL of Laemmli buffer 2× and boiled for 10 min. Insoluble proteins were then quantified, and 100 μg were loaded in a filter trap assay apparatus and transferred to a nitrocellulose membrane (0.45 μm pore) that was incubated overnight with rabbit anti-MJD antibody (1:5000) at 4° C. Bound primary antibodies were visualized by incubation with a peroxidase-conjugated anti-mouse or anti-rabbit secondary antibody (1:10000; Jackson Immuno Research Laboratories) followed by treatment with the ECL-plus reagent (Western Lighting, PerkinElmer) and exposure to autoradiography films. Band intensity was quantified by densitometry using ImageJ.
To assess the efficacy of the five compounds to reduce ATXN3 levels in the mammalian brain, secondary screens in organotypic brain slice cultures derived from hemizygous YACMJD84.2 (Q84) transgenic mice were performed.

ATXN3 = experiment: Subchronic treatment of Q84 mice, anti-ATXN3 immunofluorescence of ventral pons; type: in vivo, human
Protocol: as §1
Brains from mice perfused with 4% PFA were post-fixed overnight at 4° C. in the same fixative, immersed in 30% sucrose/PBS, and sectioned on a sledge microtome (SM200R Leica Biosystems). […] Neuronal nuclear ATXN3 was quantified using ImageJ by quantifying ATXN3 fluorescence in DAPI and NeuN double-positive nuclei. Corrected total cell fluorescence (CTCF) was obtained by measuring ATXN3 fluorescence in 15 nuclei/image field/mouse and normalizing for nuclei area using the equation CTCF=fluorescence intensity−(nucleus area×mean fluorescence of background readings). ATXN3 positive puncta were quantified using ImageJ by assessing particle fluorescence (applying the triangle threshold) in the same image fields described above.

mouse Atxn3 transcripts = experiment: Subchronic treatment of Q84 mice, quantitative RT-PCR; type: in vivo; settings: brainstem, 15 mg/kg IP daily for 10 days
Protocol: as §1
(§3) Reverse transcription of 1.5 μg of total RNA per sample was performed using the iScript cDNA synthesis kit (Bio-RAD). Human ATXN3 and mouse Atxn3, Drd2, 5HT1A, 5HT2A and Gapdh (housekeeping) transcript levels were accessed by quantitative real-time PCR. Relative gene expression was determined using the ΔΔCT method, normalizing for Gapdh mRNA levels.

human ATXN3 transcripts = experiment: as above; type: in vivo; settings: brainstem, 15 mg/kg IP daily for 10 days
Protocol: as §1, §3

MJD/SCA3 flies = experiment: Survival of MJD/SCA3 flies; type: in vivo, Drosophila; settings: 50 μM in food from eclosion
Protocol: Drosophila stocks were reared on standard cornmeal media at 25° C. in diurnal environments with ˜60% humidity. […] Full-length human ATXN3 cDNA with 77 CAG was cloned into pWalium10-moe (Perrimon Lab, Harvard Medical School). Flies that carry ATXN3 in site attP2 or the empty vector control into the same site as the most isogenic control line were generated. Injections were done into y[1], w[*]; +; attP2 (landing site). […] Adult flies of the following genotypes, w[*]; sqh-Gal4/+; UAS-ataxin-3Q77/+ or w[*], sqh-Gal4/+; Empty-Vector-Control/+ were switched from standard media to instant media as soon as they eclosed from their pupal case (day 0), and thereafter maintained on instant media with vehicle compound. Media was switched every three days, and death was noted daily.
At least 200 flies in groups of 9 to 17 flies per treatment vial were monitored.

Rad23a = experiment: Subchronic treatment of Q84 mice, Western blot of brainstem soluble fractions; type: in vivo, mouse; settings: Q84 mice vs vehicle
Protocol: as §1, §2

Hsp90a = experiment: as above; type: in vivo, mouse
Protocol: as §1, §2

Hsf1 = experiment: as above; type: in vivo, mouse
Protocol: as §1, §2

Hsp70 = experiment: as above; type: in vivo, mouse
Protocol: as §1, §2

Hsp40 = experiment: as above; type: in vivo, mouse
Protocol: as §1, §2

Hsp90β = experiment: as above; type: in vivo, mouse
Protocol: as §1, §2

Rad23b = experiment: as above; type: in vivo, mouse; settings: Q84 mice vs vehicle
Protocol: as §1, §2

O=C1CCc2ccc(OCCCCN3CCN(c4cccc(Cl)c4Cl)CC3)cc2N1 [aripiprazole]
insoluble ATXN3 vs vehicle (insoluble ATXN3): no differences | HMW ATXN3 species, of levels in vehicle-treated flies ([1]; day 12, 50 μM): 0.73 | HMW ATXN3 species, of levels in vehicle-treated flies ([1]; day 15, 50 μM): 0.41 | HMW ATXN3 species, of levels in vehicle-treated flies ([1]; day 19, 50 μM): 0.53 | HMW or other species of ATXN3Q55 (ATXN3Q55): no differences | levels of human mutant ATXN3Q84 (human mutant ATXN3Q84): reduced levels | ATXN3 nuclear levels vs vehicle (ATXN3; neuronal nuclei of ventral pons): no differences | total ATXN3 fluorescence vs control mice (ATXN3; pons): non-significant trend towards a decrease | mouse Atxn3 transcript levels vs vehicle-treated mice (mouse Atxn3 transcripts): similar | human ATXN3 transcript levels vs vehicle-treated mice (human ATXN3 transcripts): similar | increased mean survival compared with vehicle-treated flies (MJD/SCA3 flies): 1.3 days | mean survival (MJD/SCA3 flies; vehicle-treated 7.7±0.343): 9.0 ± 0.367 days | levels of Rad23a (Rad23a): trend toward decreased levels | levels of Hsp90a compared with vehicle-treated mice (Hsp90a): 79% | Heat shock transcription factor (Hsf1) level (Hsf1): increased | levels of Hsp70 compared with vehicle-treated mice (Hsp70): 62% | levels of Hsp40 (Hsp40): No differences | levels of Hsp90β compared with vehicle-treated mice (Hsp90β): 22% | levels of Rad23b (Rad23b): trend toward decreased levels
